Laboratory results from patent publication US20250163054A1, “SUBSTITUTED BICYCLIC HETEROARYL COMPOUNDS USEFUL AS INHIBITORS OF TLR9” (Bristol-Myers Squibb Company, priority 2022, published 2025).

Experiments:
Assay type in all cases: cell-based
human TLR8 = target: T1, human TLR8 (Homo sapiens, UniProt Q9NR97); experiment: TLR7/8/9 Inhibition Reporter Assays (TLR8); conditions: HEK-Blue cells overexpressing human TLR8, SEAP reporter, stimulated with TLR8 ligand R848
T1 construct: host or cells: HEK-Blue cells (HEK293-derived reporter line)
T1 sequence (Q9NR97 27-1041): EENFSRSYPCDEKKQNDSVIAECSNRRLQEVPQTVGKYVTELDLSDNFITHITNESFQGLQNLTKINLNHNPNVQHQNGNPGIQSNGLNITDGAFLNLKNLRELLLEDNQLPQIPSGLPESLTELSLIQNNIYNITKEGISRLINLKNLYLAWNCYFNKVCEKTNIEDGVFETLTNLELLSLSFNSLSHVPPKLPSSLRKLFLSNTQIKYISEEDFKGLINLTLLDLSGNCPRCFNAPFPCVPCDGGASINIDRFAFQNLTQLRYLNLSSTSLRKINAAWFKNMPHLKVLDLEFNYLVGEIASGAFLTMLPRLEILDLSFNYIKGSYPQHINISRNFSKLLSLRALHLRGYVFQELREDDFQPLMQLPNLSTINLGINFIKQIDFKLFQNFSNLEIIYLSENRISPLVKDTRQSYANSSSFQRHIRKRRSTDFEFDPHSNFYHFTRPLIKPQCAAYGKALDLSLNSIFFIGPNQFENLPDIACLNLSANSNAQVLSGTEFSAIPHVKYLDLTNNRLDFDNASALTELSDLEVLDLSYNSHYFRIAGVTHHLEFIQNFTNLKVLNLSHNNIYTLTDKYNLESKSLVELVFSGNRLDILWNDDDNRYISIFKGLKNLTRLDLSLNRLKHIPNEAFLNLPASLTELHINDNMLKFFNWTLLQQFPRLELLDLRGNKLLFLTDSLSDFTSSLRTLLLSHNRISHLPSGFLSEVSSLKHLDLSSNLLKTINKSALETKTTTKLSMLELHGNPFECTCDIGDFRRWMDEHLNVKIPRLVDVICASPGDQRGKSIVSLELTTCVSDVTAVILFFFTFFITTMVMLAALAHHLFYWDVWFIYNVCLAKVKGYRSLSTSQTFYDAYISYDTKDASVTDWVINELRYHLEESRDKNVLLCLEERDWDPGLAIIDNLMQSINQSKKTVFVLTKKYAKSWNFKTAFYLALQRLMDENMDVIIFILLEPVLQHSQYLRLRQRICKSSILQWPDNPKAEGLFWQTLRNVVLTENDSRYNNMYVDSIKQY
Protocol: (§1) HEK-Blue™-cells (Invivogen) overexpressing human TLR7, TLR8 or TLR9 receptors were used for screening inhibitors of these receptors using an inducible SEAP (secreted embryonic alkaline phosphatase) reporter gene under the control of the IFN-β minimal promoter fused to five NF-κB and AP-1-binding sites. Cells are seeded into Greiner 384 well plates (15000 cells per well) that are predispensed (by ECHO) with testing compounds in DMSO to yield a final dose response concentration range of 0.85 nM-[…]. After a 60 minute compound pre-treatment in 37° C. incubator, the cells are then stimulated with a TLR7 ligand (gardiquimod at a final concentration of […]), TLR8 ligand (R848 at a final concentration of […]) or TLR9 ligand (ODN2006 at a final concentration of 200 nM) to activate NF-κB and AP-1 which induce the production of SEAP. After a 22 hour incubation at 37° C., 5% CO2, SEAP levels are determined with the addition of HEK-Blue™ Detection reagent (Invivogen), a cell culture medium that allows for detection of SEAP, according to manufacturer's specifications. The percent inhibition is determined as the % reduction in the HEK-Blue signal present in wells treated with agonist plus DMSO alone compared to wells treated with a known inhibitor.

human TLR7 = target: T2, human TLR7 (Homo sapiens, UniProt Q9NYK1); experiment: TLR7/8/9 Inhibition Reporter Assays (TLR7); conditions: HEK-Blue cells overexpressing human TLR7, SEAP reporter, stimulated with TLR7 ligand gardiquimod
T2 construct: host or cells: HEK-Blue cells (HEK293-derived reporter line)
T2 sequence (Q9NYK1 27-1049): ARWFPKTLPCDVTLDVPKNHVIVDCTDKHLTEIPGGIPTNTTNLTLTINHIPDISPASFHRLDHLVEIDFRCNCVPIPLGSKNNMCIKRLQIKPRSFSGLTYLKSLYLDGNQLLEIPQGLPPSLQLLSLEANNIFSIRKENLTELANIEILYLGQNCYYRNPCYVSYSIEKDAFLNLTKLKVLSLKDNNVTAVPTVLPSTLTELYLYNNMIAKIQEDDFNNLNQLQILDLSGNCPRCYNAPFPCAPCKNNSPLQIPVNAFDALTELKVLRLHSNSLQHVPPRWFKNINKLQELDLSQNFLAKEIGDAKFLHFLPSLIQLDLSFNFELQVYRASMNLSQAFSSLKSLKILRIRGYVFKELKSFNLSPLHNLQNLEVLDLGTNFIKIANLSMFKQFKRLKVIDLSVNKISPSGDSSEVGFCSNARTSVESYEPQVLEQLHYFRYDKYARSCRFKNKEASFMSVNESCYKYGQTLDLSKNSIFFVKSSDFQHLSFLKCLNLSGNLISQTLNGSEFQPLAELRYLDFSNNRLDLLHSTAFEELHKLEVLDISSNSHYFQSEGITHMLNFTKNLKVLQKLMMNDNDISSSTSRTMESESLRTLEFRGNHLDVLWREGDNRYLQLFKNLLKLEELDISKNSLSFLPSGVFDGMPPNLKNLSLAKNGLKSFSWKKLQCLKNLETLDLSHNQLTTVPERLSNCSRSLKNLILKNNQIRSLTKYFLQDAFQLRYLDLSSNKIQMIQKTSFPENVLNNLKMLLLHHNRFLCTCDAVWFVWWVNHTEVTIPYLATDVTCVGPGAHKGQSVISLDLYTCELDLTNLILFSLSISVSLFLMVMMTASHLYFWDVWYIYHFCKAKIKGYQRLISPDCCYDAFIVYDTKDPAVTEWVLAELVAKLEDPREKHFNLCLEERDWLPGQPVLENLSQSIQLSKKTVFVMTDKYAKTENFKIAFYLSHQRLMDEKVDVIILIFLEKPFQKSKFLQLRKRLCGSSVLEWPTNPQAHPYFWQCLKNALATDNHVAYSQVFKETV
Protocol: as §1

human TLR9 = target: T3, human TLR9 (Homo sapiens, UniProt Q9NR96); experiment: TLR7/8/9 Inhibition Reporter Assays (TLR9); conditions: HEK-Blue cells overexpressing human TLR9, SEAP reporter, stimulated with TLR9 ligand ODN2006
T3 construct: host or cells: HEK-Blue cells (HEK293-derived reporter line)
T3 sequence (Q9NR96 26-1032): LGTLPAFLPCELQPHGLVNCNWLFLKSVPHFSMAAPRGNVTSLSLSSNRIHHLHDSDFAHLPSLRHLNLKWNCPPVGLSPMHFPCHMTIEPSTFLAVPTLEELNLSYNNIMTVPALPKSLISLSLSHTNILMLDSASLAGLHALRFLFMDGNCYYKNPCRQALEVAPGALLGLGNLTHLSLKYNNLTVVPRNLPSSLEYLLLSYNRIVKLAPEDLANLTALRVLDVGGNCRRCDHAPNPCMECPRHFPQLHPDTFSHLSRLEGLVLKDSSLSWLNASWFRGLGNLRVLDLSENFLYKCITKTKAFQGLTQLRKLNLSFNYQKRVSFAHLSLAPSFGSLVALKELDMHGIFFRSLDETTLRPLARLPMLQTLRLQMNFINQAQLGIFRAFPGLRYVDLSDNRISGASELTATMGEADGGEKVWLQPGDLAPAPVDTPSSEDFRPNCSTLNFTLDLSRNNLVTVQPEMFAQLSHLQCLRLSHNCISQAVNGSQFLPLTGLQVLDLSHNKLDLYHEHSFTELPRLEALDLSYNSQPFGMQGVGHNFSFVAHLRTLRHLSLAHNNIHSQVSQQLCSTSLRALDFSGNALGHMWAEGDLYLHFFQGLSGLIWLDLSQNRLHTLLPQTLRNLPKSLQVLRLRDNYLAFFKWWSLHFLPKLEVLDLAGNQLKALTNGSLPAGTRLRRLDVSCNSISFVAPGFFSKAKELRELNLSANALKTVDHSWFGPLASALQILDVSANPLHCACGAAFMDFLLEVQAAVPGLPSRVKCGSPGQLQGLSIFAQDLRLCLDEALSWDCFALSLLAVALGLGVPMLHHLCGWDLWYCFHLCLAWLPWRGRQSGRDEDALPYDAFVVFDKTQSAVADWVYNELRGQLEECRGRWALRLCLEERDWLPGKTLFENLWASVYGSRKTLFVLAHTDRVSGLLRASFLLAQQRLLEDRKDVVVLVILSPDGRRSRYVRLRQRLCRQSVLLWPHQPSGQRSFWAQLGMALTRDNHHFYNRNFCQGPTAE
Protocol: as §1

CC(C)CN1CC2(CCN(c3ccc(-c4cc5c(cn4)nc(-c4ccc(S(C)(=O)=O)cc4)n5C)cc3)CC2)C1 [Example 96, 6-(4-(2-isobutyl-2,7-diazaspiro[3.5]nonan-7-yl)phenyl)-1-methyl-2-(4-(methylsulfonyl)phenyl)-1H-imidazo[4,5-c]pyridine]
IC50 (human TLR8): 990 nM | IC50 (human TLR7): 3000 nM | IC50 (human TLR9): 240 nM

CC(C)CN1CC2(CCN(c3ccc(-c4cc5c(cn4)nc(-c4ccc(S(C)(=O)=O)cc4)n5C4CC4)cc3)CC2)C1 [Example 86, 1-cyclopropyl-6-(4-(2-isobutyl-2,7-diazaspiro[3.5]nonan-7-yl)phenyl)-2-(4-(methylsulfonyl)phenyl)-1H-imidazo[4,5-c]pyridine]
IC50 (human TLR8): 3000 nM | IC50 (human TLR7): 6700 nM | IC50 (human TLR9): 270 nM

Cn1c(-c2ccc(S(C)(=O)=O)cc2)nc2cnc(-c3ccc(N4CCC5(CC4)CN(C4COC4)C5)cc3)cc21 [Example 108, 1-methyl-2-(4-(methylsulfonyl)phenyl)-6-(4-(2-(oxetan-3-yl)-2,7-diazaspiro[3.5]nonan-7-yl)phenyl)-1H-imidazo[4,5-c]pyridine]
IC50 (human TLR8): > 25000 nM | IC50 (human TLR7): 29000 nM | IC50 (human TLR9): 740 nM

CS(=O)(=O)c1ccc(-c2nc3cnc(-c4ccc(N5CCN(CCN6CCOCC6)CC5)cc4)cc3n2C2CC2)cc1 [Example 56, 4-(2-(4-(4-(1-cyclopropyl-2-(4-(methylsulfonyl)phenyl)-1H-imidazo[4,5-c]pyridin-6-yl)phenyl)piperazin-1-yl)ethyl)morpholine]
IC50 (human TLR8): 46000 nM | IC50 (human TLR7): > 50000 nM | IC50 (human TLR9): 880 nM

Cc1nc(-c2ccc(N3CC4(CN(CC(C)C)C4)C3)cc2)cc2c1nc(-c1ccc(S(C)(=O)=O)cc1)n2C [Example 57, 6-(4-(6-isobutyl-2,6-diazaspiro[3.3]heptan-2-yl)phenyl)-1,4-dimethyl-2-(4-(methylsulfonyl)phenyl)-1H-imidazo[4,5-c]pyridine]
IC50 (human TLR8): 4800 nM | IC50 (human TLR7): 4000 nM | IC50 (human TLR9): 150 nM

COCCN1CC2(C1)CN(c1ccc(-c3cc4c(nc(-c5ccc(OC)c(OC)c5)n4C)c(C)n3)cc1)C2 [Example 101, 2-(3,4-dimethoxyphenyl)-6-(4-(6-(2-methoxyethyl)-2,6-diazaspiro[3.3]heptan-2-yl)phenyl)-1,4-dimethyl-1H-imidazo[4,5-c]pyridine]
IC50 (human TLR8): > 50000 nM | IC50 (human TLR7): 1800 nM | IC50 (human TLR9): 85 nM

Cc1nc(-c2ccc(N3CCC(N4CCCC4)CC3)cc2F)cc2c1nc(-c1ccc(S(C)(=O)=O)cc1)n2C [Example 43, 6-(2-fluoro-4-(4-(pyrrolidin-1-yl)piperidin-1-yl)phenyl)-1,4-dimethyl-2-(4-(methylsulfonyl)phenyl)-1H-imidazo[4,5-c]pyridine]
IC50 (human TLR8): 2300 nM | IC50 (human TLR7): 3900 nM | IC50 (human TLR9): 290 nM

CC(C)CN1CCC(N2CC=C(c3cc4c(nc(-c5ccc(S(C)(=O)=O)cc5)n4C)c(C(F)(F)F)n3)CC2)CC1 [Example 36, 6-(1-(1-isobutylpiperidin-4-yl)-1,2,3,6-tetrahydropyridin-4-yl)-1-methyl-2-(4-(methylsulfonyl)phenyl)-4-(trifluoromethyl)-1H-imidazo[4,5-c]pyridine]
IC50 (human TLR8): > 50000 nM | IC50 (human TLR7): 4100 nM | IC50 (human TLR9): 330 nM

COc1ccc(-c2nc3c(C)nc(-c4ccc(N5CCC6(CC5)CN(CC(C)(C)O)C6)cc4)cc3n2C)cc1OC [Example 92, 1-(7-(4-(2-(3,4-dimethoxyphenyl)-1,4-dimethyl-1H-imidazo[4,5-c]pyridin-6-yl)phenyl)-2,7-diazaspiro[3.5]nonan-2-yl)-2-methylpropan-2-ol]
IC50 (human TLR8): > 50000 nM | IC50 (human TLR7): 1500 nM | IC50 (human TLR9): 1000 nM

COC1CCN(Cc2ccc(-c3ccc(-c4cc5c(nc(-c6ccc(S(C)(=O)=O)cc6)n5C)c(C)n4)cc3)nc2)CC1 [Example 50, 6-(4-(5-((4-methoxypiperidin-1-yl)methyl)pyridin-2-yl)phenyl)-1,4-dimethyl-2-(4-(methylsulfonyl)phenyl)-1H-imidazo[4,5-c]pyridine]
IC50 (human TLR8): > 50000 nM | IC50 (human TLR7): 1100 nM | IC50 (human TLR9): 530 nM

CC(C)N1C[C@H]2CN(c3ccc(-c4cc5c(cn4)nc(-c4ccc(S(C)(=O)=O)cc4)n5C4CC4)cc3)C[C@H]2C1 [Example 87, 1-cyclopropyl-6-(4-((3aR,6aS)-5-isopropylhexahydropyrrolo[3,4-c]pyrrol-2(1H)-yl)phenyl)-2-(4-(methylsulfonyl)phenyl)-1H-imidazo[4,5-c]pyridine]
IC50 (human TLR8): 2000 nM | IC50 (human TLR7): 1500 nM | IC50 (human TLR9): 290 nM
